What is called AC50 is the concentration giving half of the maximal activity seen. Low values mean greater potency, high ones weaker potency.

The values that follow come from ChEMBL document CHEMBL5291721, “A preclinical secondary pharmacology resource illuminates target-adverse drug reaction associations of marketed drugs” (Nat Commun, 2023).

Assay [1] has as its target T1, Cholecystokinin receptor type A (Homo sapiens, UniProt P32238).
T1 sequence (P32238 whole entry): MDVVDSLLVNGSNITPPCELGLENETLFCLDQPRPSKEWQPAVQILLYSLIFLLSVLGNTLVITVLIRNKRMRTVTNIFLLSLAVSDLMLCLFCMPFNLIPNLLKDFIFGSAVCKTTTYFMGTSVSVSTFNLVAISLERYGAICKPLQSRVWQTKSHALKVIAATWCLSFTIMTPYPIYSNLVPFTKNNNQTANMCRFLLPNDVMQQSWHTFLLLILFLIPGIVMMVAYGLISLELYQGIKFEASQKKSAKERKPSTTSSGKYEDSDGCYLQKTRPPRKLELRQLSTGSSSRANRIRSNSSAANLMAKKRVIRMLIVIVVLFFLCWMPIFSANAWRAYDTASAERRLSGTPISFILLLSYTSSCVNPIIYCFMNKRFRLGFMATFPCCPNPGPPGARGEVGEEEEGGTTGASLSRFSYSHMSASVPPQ

The target in assay [2] is Beta-2 adrenergic receptor (Homo sapiens, UniProt P07550).
Beta-2 adrenergic receptor, sequence (P07550 whole entry): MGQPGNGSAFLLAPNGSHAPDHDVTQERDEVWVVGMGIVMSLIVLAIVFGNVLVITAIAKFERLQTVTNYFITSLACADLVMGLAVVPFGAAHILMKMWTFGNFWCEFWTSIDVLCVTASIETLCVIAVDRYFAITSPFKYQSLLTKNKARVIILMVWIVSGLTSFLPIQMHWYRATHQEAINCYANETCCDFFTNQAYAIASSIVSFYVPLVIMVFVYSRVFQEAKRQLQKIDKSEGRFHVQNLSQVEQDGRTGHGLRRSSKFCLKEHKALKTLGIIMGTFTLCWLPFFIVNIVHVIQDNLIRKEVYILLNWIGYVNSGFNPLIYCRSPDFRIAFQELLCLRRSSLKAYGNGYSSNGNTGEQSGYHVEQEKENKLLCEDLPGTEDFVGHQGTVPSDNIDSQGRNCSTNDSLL
In another assay the target is Vasopressin V2 receptor (Homo sapiens, UniProt P30518).
Vasopressin V2 receptor, sequence (P30518 whole entry): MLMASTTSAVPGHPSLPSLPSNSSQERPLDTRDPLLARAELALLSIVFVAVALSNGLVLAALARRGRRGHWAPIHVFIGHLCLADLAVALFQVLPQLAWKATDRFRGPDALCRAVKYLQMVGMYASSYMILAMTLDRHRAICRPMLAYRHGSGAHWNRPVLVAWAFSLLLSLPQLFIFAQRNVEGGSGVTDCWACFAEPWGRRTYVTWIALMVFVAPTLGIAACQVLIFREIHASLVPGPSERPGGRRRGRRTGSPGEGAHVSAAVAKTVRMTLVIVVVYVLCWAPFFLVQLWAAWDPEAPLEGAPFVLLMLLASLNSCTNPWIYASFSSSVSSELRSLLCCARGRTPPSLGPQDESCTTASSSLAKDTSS
In assay [3] the target is 5-hydroxytryptamine receptor 2B (Homo sapiens, UniProt P41595). It counts as functional, cell-based.
5-hydroxytryptamine receptor 2B, sequence (P41595 whole entry): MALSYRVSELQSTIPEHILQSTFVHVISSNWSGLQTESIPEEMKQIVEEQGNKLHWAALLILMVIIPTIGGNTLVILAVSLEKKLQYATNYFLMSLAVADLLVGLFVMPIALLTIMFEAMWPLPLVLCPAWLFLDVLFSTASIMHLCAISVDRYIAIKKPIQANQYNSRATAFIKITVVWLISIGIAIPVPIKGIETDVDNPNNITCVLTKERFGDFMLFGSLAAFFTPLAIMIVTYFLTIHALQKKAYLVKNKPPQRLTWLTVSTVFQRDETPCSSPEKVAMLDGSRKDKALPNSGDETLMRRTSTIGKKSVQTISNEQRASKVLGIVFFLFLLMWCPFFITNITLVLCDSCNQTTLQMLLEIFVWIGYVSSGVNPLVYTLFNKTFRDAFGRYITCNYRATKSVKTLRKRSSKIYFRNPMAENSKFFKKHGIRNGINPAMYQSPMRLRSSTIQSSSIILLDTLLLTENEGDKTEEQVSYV
The next assay has as its target T2, B2 bradykinin receptor (Homo sapiens, UniProt P30411).
T2 sequence (P30411 whole entry): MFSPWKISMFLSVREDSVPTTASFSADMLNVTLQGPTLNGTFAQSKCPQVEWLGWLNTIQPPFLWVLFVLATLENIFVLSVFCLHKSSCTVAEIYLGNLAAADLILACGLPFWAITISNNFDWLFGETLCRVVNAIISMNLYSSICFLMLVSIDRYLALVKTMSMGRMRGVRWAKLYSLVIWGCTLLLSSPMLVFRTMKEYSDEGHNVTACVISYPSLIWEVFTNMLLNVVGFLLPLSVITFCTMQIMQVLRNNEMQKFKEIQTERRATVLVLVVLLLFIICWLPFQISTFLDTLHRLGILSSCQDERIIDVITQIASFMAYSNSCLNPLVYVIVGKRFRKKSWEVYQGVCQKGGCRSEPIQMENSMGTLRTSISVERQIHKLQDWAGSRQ

The target in a further assay is T3, Thromboxane A2 receptor (Homo sapiens, UniProt P21731).
T3 sequence (P21731 whole entry): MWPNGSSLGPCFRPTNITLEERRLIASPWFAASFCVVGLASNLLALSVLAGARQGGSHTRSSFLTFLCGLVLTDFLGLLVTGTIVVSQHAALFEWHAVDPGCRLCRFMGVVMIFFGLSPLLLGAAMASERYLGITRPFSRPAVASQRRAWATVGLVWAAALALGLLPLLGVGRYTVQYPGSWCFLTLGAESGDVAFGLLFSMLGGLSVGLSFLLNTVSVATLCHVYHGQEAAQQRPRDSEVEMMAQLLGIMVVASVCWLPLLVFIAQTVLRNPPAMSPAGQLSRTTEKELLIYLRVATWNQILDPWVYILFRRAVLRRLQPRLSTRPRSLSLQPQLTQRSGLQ

A further assay deals with Mu-type opioid receptor (Homo sapiens, UniProt P35372). Description: biochemical. The format is functional.
Mu-type opioid receptor, sequence (P35372 whole entry): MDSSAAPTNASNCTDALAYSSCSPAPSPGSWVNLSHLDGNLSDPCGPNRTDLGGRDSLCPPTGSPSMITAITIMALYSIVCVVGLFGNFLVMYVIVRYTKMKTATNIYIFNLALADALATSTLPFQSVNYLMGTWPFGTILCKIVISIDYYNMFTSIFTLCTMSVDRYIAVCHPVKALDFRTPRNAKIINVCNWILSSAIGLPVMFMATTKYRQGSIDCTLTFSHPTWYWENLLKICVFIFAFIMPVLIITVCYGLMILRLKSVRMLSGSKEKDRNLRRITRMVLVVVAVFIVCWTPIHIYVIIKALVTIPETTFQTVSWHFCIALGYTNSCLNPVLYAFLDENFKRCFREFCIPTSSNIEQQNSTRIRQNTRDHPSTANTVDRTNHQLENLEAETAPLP
Assay [4] deals with T4, Alpha-1A adrenergic receptor (Homo sapiens, UniProt P35348).
T4 sequence (P35348 whole entry): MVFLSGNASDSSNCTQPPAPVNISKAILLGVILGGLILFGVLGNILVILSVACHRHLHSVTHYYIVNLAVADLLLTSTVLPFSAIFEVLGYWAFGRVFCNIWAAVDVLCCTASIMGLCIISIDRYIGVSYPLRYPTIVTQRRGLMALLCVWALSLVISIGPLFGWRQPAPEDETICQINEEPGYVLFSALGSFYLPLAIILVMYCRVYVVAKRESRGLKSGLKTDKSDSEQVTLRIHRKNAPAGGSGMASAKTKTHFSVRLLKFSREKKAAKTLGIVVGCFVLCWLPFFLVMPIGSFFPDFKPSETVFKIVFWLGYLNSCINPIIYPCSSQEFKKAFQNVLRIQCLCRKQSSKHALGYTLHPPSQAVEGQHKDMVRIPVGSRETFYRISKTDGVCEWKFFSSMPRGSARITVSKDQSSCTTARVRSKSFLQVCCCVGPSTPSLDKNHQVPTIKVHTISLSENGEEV
The format is functional, cell-based.

Another assay deals with T5, Progesterone receptor (Homo sapiens, UniProt P06401).
T5 sequence (P06401 whole entry): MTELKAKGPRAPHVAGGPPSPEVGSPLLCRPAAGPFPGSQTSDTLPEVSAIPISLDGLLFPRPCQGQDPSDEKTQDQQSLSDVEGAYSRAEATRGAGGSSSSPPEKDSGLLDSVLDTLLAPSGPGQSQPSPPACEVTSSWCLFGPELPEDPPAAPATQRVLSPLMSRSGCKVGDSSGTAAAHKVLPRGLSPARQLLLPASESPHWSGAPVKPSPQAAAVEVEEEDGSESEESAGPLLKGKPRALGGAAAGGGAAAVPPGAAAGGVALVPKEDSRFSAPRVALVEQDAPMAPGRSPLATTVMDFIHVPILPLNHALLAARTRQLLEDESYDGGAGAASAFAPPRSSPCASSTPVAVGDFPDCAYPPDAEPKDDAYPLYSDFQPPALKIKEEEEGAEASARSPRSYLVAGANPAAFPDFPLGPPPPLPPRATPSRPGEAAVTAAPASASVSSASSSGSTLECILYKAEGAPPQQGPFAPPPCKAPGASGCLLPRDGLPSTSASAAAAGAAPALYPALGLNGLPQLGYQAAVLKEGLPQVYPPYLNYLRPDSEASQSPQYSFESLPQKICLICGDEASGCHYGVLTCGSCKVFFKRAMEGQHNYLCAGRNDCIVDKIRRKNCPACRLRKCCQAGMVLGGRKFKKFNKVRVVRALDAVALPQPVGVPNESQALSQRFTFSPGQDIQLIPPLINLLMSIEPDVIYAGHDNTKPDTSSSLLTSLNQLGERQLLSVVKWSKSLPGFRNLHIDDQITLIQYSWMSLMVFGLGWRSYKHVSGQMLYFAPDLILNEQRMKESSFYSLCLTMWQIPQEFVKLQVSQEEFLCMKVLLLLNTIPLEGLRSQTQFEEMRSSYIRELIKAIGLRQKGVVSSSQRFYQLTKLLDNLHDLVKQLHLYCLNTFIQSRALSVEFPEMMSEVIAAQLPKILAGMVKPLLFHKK

As for `C[N+]1(C)CCC(=C(c2ccccc2)c2ccccc2)CC1`, the AC50 is above 30 µM in assay [1]; above 10 µM in assay [2]; above 30 µM on Vasopressin V2 receptor; above 10 µM in assay [3]; above 30 µM at B2 bradykinin receptor; above 30 µM at Thromboxane A2 receptor.

As for `CN(C)Cc1nnc2n1-c1ccc(Cl)cc1C(c1ccccc1)=NC2` [ADINAZOLAM], the AC50 (in assay [1]; in assay [2]; at Vasopressin V2 receptor; in assay [3]; on B2 bradykinin receptor; at Thromboxane A2 receptor) was above 10 µM in each case.

For the compound `CN(C)C/C=C/C(=O)Nc1cc2c(Nc3ccc(F)c(Cl)c3)ncnc2cc1O[C@H]1CCOC1` [AFATINIB], the AC50 in assay [1] is 11 µM; at Mu-type opioid receptor, above 30 µM; at Vasopressin V2 receptor it was above 30 µM; in assay [3] it was above 30 µM; on B2 bradykinin receptor, above 30 µM; in assay [4], above 30 µM.

With `Cc1ccccc1-n1c(CF)nc2ccc(N)cc2c1=O` [AFLOQUALONE], the AC50 was above 30 µM in assay [1]; above 30 µM in assay [2]; above 30 µM at Mu-type opioid receptor; above 30 µM on Vasopressin V2 receptor; above 10 µM in assay [3]; above 30 µM on B2 bradykinin receptor. Besides, the AC50 at Thromboxane A2 receptor was above 30 µM.

In the case of `CCC1(c2ccc(N)cc2)CCC(=O)NC1=O` (stereo unspecified) [AMINOGLUTETHIMIDE], the AC50 (in [1]; on Mu-type opioid receptor; on Vasopressin V2 receptor; in [3]; on B2 bradykinin receptor; at Thromboxane A2 receptor) was above 30 µM throughout. The compound further had a concentration at half-maximal activity (AC50) in [4] above 30 µM.

Take `O=C(/C=C/c1cccc(S(=O)(=O)Nc2ccccc2)c1)NO` [BELINOSTAT]: the AC50 was above 30 µM in assay [1]; above 10 µM in assay [2]; above 30 µM on Progesterone receptor; above 30 µM at Vasopressin V2 receptor; above 30 µM on B2 bradykinin receptor; above 30 µM at Thromboxane A2 receptor.

For `CC(Cc1cccc(C(F)(F)F)c1)NCCOC(=O)c1ccccc1` (stereo unspecified) [BENFLUOREX], the AC50 in [1] is above 30 µM; at Mu-type opioid receptor it was 11 µM; at Vasopressin V2 receptor, above 30 µM; in assay [3], above 30 µM; at B2 bradykinin receptor it was above 30 µM; on Thromboxane A2 receptor, above 30 µM. In assay [4], this compound registered an AC50 above 30 µM.

With `CCOC(=O)c1ccc(N)cc1` [BENZOCAINE], the AC50 (in assay [1]; in [2]; at Vasopressin V2 receptor; in assay [3]; at B2 bradykinin receptor; at Thromboxane A2 receptor) was above 10 µM throughout.

As for `CC(C)(Oc1ccc(CCNC(=O)c2ccc(Cl)cc2)cc1)C(=O)O` [BEZAFIBRATE], the AC50 (in assay [1]; in assay [2]; at Vasopressin V2 receptor; in assay [3]; on B2 bradykinin receptor; at Thromboxane A2 receptor) was above 10 µM each time. Besides, the AC50 in assay [4] is above 30 µM.

With `C/C=C(/C(=C/C)c1ccc(O)cc1)c1ccc(O)cc1` [DIENESTROL], the AC50 in assay [1] is above 10 µM; in [2], above 10 µM; on Mu-type opioid receptor, above 30 µM; on Vasopressin V2 receptor, above 10 µM; in assay [3], above 10 µM; on B2 bradykinin receptor it was above 10 µM. Also, the AC50 at Thromboxane A2 receptor was above 10 µM.

As for `C=C1c2cccc(O)c2C(=O)C2=C(O)[C@]3(O)C(=O)C(C(N)=O)=C(O)[C@@H](N(C)C)[C@@H]3[C@@H](O)[C@H]12` [METHACYCLINE], the AC50 was above 30 µM in [1]; above 10 µM in assay [2]; above 30 µM on Vasopressin V2 receptor; above 10 µM in assay [3]; above 30 µM at B2 bradykinin receptor; above 30 µM at Thromboxane A2 receptor.

As for `CN(Cc1cnc2nc(N)nc(N)c2n1)c1ccc(C(=O)N[C@@H](CCC(=O)O)C(=O)O)cc1` [METHOTREXATE], the AC50 in assay [1] was above 30 µM; in [2] it was above 10 µM; on Vasopressin V2 receptor, above 30 µM; in [3], above 10 µM; on B2 bradykinin receptor, above 30 µM; on Thromboxane A2 receptor, above 30 µM. In [4], this compound yielded an AC50 above 30 µM.

`COc1ccc(OC)c(C(O)C(C)N)c1` (stereo unspecified) [METHOXAMINE] showed an AC50 at Progesterone receptor above 30 µM.

On to `OC[C@H]1O[C@@H](n2cnc3c2NC=NC[C@H]3O)C[C@@H]1O` [PENTOSTATIN], for which the AC50 (in assay [1]; at Mu-type opioid receptor; on Vasopressin V2 receptor; in assay [3]; on B2 bradykinin receptor; in assay [4]) was above 30 µM each time.

Take `O=C1c2ccccc2C(=O)C1c1ccccc1` [PHENINDIONE]: the AC50 (in [1]; in assay [2]; at Vasopressin V2 receptor; in assay [3]; at B2 bradykinin receptor; on Thromboxane A2 receptor) was above 10 µM in each case. Further, in [4], the AC50 is above 30 µM.

`CC(C)c1cccc(C(C)C)c1O` [PROPOFOL]: the AC50 in assay [1], in [3] and in [4] was above 30 µM throughout.

`Clc1ccc(C(Cn2ccnc2)OCc2csc3c(Cl)cccc23)c(Cl)c1` (stereo unspecified) [SERTACONAZOLE] displayed an AC50 on Progesterone receptor of 0.831 µM. In other words, the sub-micromolar range.

For the compound `CC(OCCN1CCCCCC1)(c1ccccc1)c1ccc(Cl)cc1` (stereo unspecified) [SETASTINE], the AC50 at Progesterone receptor was above 30 µM.

As for `O=C1OC(OC(=O)c2cccnc2Nc2cccc(C(F)(F)F)c2)c2ccccc21` (stereo unspecified) [TALNIFLUMATE], the AC50 (in assay [1]; at Mu-type opioid receptor; on Vasopressin V2 receptor; in assay [3]; on B2 bradykinin receptor; on Thromboxane A2 receptor) was above 30 µM in each case. In assay [4], this compound registered an AC50 above 30 µM.

`c1ccc2c(SC3=NCCN3)c[nH]c2c1` [TINAZOLINE] had an AC50 at Progesterone receptor of 24 µM.

For `COc1ccc2c(C(=S)N(C)CC(=O)O)cccc2c1C(F)(F)F` [TOLRESTAT], at Progesterone receptor, the AC50 was above 30 µM.
